Columns and labels:
[1] = molecular target: T1, CYP2A6dH (Homo sapiens, UniProt P11509, Q458E); assay: coumarin 7-hydroxylation by purified CYP2A6dH reconstituted with P450 reductase; type: biochemical
T1 construct: expressing residues 29-494 of the catalytic domain without internal modifications; 4xHis (C); made in house; host or cells: Escherichia coli
T1 sequence (P11509 with tags, fused parts or gaps Q458E): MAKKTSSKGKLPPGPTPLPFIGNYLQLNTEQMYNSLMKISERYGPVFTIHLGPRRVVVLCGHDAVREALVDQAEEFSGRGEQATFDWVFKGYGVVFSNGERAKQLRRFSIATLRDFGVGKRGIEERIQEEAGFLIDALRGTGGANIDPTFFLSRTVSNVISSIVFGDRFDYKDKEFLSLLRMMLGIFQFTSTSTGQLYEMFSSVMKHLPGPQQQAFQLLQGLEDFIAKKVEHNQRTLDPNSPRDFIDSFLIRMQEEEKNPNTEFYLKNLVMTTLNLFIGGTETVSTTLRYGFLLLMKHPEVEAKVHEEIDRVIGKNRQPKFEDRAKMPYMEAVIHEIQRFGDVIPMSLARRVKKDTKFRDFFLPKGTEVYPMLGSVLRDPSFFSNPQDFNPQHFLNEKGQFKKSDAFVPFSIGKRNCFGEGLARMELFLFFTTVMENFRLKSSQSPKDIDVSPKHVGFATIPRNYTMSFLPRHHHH
Source text: In this example, to determine catalytic properties for the purified protein, CYP2A6dH was reconstituted with E. coli-expressed purified human reductase in the absence of L-α-dilauroyl-L-α-lecithin with slight modifications to the protocol described by Tan et al. (Competitive interactions between CYP2A6 and cytochrome P450 2E1 for NADPH-cytochrome P450 oxidoreductase in the microsomal membranes produced by a baculovirus expression system. Arch. Biochem. Biophys. 342, 82-91 (1997)). 10 pmol CYP2A6dH was incubated on ice for 10 min. with 0.06 U human reductase at a ratio of 1:6, CYP2A6dH to reductase in a final volume of 10 μl. 1.2 benzopyrone at concentrations ranging from 25 μM to 2.5 mM were then added in […] aliquots, along with 430 μL of 50 mM Tris pH 7.4. The reaction mixture was allowed to equilibrate at 37° C. for 3 min. To start the reaction, 50 μl of an NADPH regeneration system (50 mM isocitrate, 50 mM MgCl2, 5 U/ml isocitrate dehydrogenase and 10 mM NADPH) was added. The reaction was allowed to proceed for 5 min., and stopped by addition of 100 μl of cold 20% trichloroacetic acid. The components were centrifuged at 13,000 rpm. 10 μl of the supernatant was removed and added to 190 μl 100 mM Tris buffer, pH 9.0. the coumarin content was quantified fluorometrically (excitation at 368 nm and emission at 453 nm).

[2] = molecular target: T1, CYP2A6dH; assay: binding constants by visible difference spectroscopy (low spin to high spin conversion); details: for spectral change on binding to the purified enzyme: spectral titration, UV-visible
Experimental: Purified CYP2A6dH was diluted to ˜3 μM in 50 mM KPi pH 7.4, 500 mM NaCl, 20% glycerol, 1 mM EDTA (referred to as XB) in a 1-cm path length microcuvette. […] The total concentration of methanol remained under 1%. Binding was monitored as the absorbance difference, ΔA, between the peak (˜385 nm) and trough (˜417 nm) of the difference spectrum. The apparent binding constant, Ks, and the extrapolated maximum spectral change, ΔAmax, were estimated from nonlinear least-squares regression fitting using the following equation:
[formula] where S is the total concentration of ligand and P is the total concentration of P450.

[3] = molecular target: T2, full length wild-type CYP2A6 (Homo sapiens, UniProt P11509); details: microsomal preparations from a panel of 12 human liver microsomes, cited from earlier work
T2 construct: for full length wild-type CYP2A6 in microsomal preparations; host or cells: human liver microsomes (panel of 12)
T2 sequence (P11509 1-494): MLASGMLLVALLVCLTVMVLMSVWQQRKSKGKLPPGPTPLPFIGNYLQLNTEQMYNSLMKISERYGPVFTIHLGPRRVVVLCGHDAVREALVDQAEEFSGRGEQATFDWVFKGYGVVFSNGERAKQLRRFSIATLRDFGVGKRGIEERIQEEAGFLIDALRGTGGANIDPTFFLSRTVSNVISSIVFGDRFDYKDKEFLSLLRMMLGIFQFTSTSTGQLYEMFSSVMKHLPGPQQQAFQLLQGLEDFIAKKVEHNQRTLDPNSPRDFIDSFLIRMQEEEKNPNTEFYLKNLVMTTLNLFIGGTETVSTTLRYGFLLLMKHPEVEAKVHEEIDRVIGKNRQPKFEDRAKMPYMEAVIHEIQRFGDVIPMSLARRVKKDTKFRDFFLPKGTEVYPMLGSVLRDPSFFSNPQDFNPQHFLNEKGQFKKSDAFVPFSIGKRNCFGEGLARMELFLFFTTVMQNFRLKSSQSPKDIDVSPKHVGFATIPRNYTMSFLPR

Row | Structure (SMILES) | Km [1] | Vmax for coumarin 7-hydroxylation [1] | spectral change on binding to the purified enzyme [2] | Kd ([2]; substrate dependent conversion to high spin ferric heme protein, read-out: Dissociation constant for binding to purified CYP2A6dH) | Vmax of coumarin hydroxylation (mean value) [3] | Km ([3]; read-out: Km of coumarin hydroxylation (mean value))
1 | O=c1ccc2ccccc2o1 [coumarin, 1,2-benzopyrone] | 0.23 ± 0.03 µM | 10.83±1.38 nmols/min/nmol P450 | type I spectral change | 270 nM | 6.34 nmols/min/nmol P450 | 0.4 µM
2 | COc1c2occc2cc2ccc(=O)oc12 [methoxsalen, 8-methoxypsoralen] | – | – | type I spectral change | – | – | –

Source: patent publication US8076457B2, “Crystal of a cytochrome-ligand complex and methods of use” (The Scripps Research Institute, priority 2005, dated 2011)
